Literature values as cited in US20120141611A1, “METHODS AND COMPOSITIONS USING ERGOTHIONEINE TO TREAT A VARIETY OF HEALTH RELATED FACTORS” (Oxis International Inc., priority 2010, published 2012).
≈ marks a conversion by molar mass, not a printed value. Read-outs that look alike come from different tables or passages of the source.

What was measured:
[1] = Dog, cited from earlier work
[2] = cited from earlier work
[3] = cited from earlier work; remark: listed apart in the source
[4] = Ox; cited from earlier work
[5] = TLC densitometry, cited from earlier work
[6] = rat; cited from earlier work
[7] = room temperature; cited from earlier work
[8] = physiologic pH, does not auto-oxidize; cited from earlier work
[9] = system: glutathione peroxidase; conditions: mouse liver cytosol fractions; cited from earlier work
[10] = system: hepatic microsomes; conditions: NADPH or ascorbic acid challenge; cited from earlier work
[11] = system: isolated rat heart; conditions: 0.1 mM; cited from earlier work
[12] = system: isolated rabbit heart; conditions: cited from earlier work
[13] = system: erythrocytes; conditions: added to hemolyzed erythrocytes or erythrocyte suspensions; cited from earlier work
[14] = system: mouse skin; conditions: UV-induced skin damage; cited from earlier work
[15] = low concentrations; cited from earlier work
[16] = system: rat retina; conditions: NMDA, cited from earlier work

Q: With `C[N+](C)(C)[C@@H](Cc1c[nH]c(=S)[nH]1)C(=O)[O-]` [Ergothioneine, ergothioneine] as the compound, how does the “Concentration of LE in tissue” value ([1]; Heart) read?
A: Its value is 8.9 mgs/100 gm fresh tissue.

Q: And the “Concentration of LE in tissue” value ([1]; Kidney)?
A: The value was 1.6 mgs/100 gm fresh tissue.

Q: What about the “Concentration of LE in tissue” value ([1]; Liver) of the same compound?
A: The value was 0.9 mgs/100 gm fresh tissue.

Q: And the “Concentration of LE in tissue” value ([1]; Lungs)?
A: Its value is 0.6 mgs/100 gm fresh tissue.

Q: And the “Concentration of LE in tissue” value ([1]; RBC)?
A: Its value is 6.6 mgs/100 gm fresh tissue.

Q: And the “Concentration of LE in tissue” value ([1]; Spleen)?
A: The value was 1.1 mgs/100 gm fresh tissue.

Q: And the “Concentration of LE in tissue” value ([1]; Testes)?
A: Its value is 0.0 mgs/100 gm fresh tissue.

Q: And the “Concentration of l-ergothioneine in the blood” value (shortened to “Concentration … in the blood”) [1]?
A: The value was 3-6 mg/100 ml blood.

Q: What about the “Concentration of LE in tissue” value ([2]; Cat, Heart) of the same compound?
A: The value was 0.0 mgs/100 gm fresh tissue.

Q: What about the “Concentration of LE in tissue” value ([2]; Cat, Kidney) of the same compound?
A: Its value is 3.1 mgs/100 gm fresh tissue.

Q: And the “Concentration of LE in tissue” value ([2]; Cat, Liver)?
A: Its value is 2.7 mgs/100 gm fresh tissue.

Q: What about the “Concentration of LE in tissue” value ([2]; Cat, Lungs) of the same compound?
A: Its value is 0.8 mgs/100 gm fresh tissue.

Q: And the “Concentration of LE in tissue” value ([2]; Cat, RBC)?
A: The value was 2.9 mgs/100 gm fresh tissue.

Q: And the “Concentration of LE in tissue” value ([2]; Cat, Testes)?
A: Its value is 0.0 mgs/100 gm fresh tissue.

Q: What about the “Concentration … in the blood” value ([2]; Cat) of the same compound?
A: Its value is 0.5-2 mg/100 ml blood.

Q: What about the Ergothioneine in brain ([2]; brains of cats) of the same compound?
A: Its Ergothioneine in brain is 3.0 µg/g.

Q: And the “Concentration … in the blood” value ([3]; Man)?
A: The value was 1-4 mg/100 ml blood.

Q: And the “Levels in human blood cells” value ([3]; healthy males from Saudi Arabia)?
A: Its value is 1-4 mg/100 mL.

Q: What about the “Concentration … in the blood” value [4] of the same compound?
A: Its value is 0.5-2 mg/100 ml blood.

Q: What about the “Level in rat tissue” value ([5]; brain) of the same compound?
A: Its value is 0.41 mg/100 g.

Q: What about the “Level in rat tissue” value ([5]; kidney) of the same compound?
A: Its value is 1.58 mg/100 g.

Q: And the “Level in rat tissue” value ([5]; liver)?
A: The value was 7.82 mg/100 g.

Q: What about the “Level in rat tissue” value ([5]; plasma) of the same compound?
A: The value was 0.21 mg/100 g.

Q: And the “Level in rat tissue” value ([5]; testicle)?
A: The value was 0.5 mg/100 g.

Q: What about the Whole body half-life [6] of the same compound?
A: Its Whole body half-life is “approximately 30 days”.

Q: What about the Solubility limit [7] of the same compound?
A: Its Solubility limit is 900 mM (≈ 206 mg/mL).

Q: What about the “Stability in aqueous solution” value [8] of the same compound?
A: The value was “very stable in aqueous solution”.

Q: And the Glutathione peroxidase activity [9]?
A: Its Glutathione peroxidase activity is “markedly increased”.

Q: What about the “NADPH-dependent enzymatic lipid peroxidation” value [10] of the same compound?
A: The value was “inhibits”.

Q: What about the “Protection against reperfusion injury as measured by LDH release” value [11] of the same compound?
A: The value was “protected the isolated rat heart against reperfusion injury”.

Q: And the “Protection against ischemia-reperfusion injury” value [12]?
A: The value was “failed to protect”.

Q: And the Lactate production [13]?
A: The Lactate production was “increased lactate production”.

Q: What about the “Protection of mouse skin in vivo” value [14] of the same compound?
A: Its value is “failed to protect mouse skin in vivo”.

Q: What about the Radioprotection in vitro [15] of the same compound?
A: The Radioprotection in vitro was “very potent radioprotector even at low concentrations”.

Q: And the “Loss of nonganglion cells” value ([16]; rats treated with ergothioneine (43% without))?
A: The value was 31%.

Q: And the “Loss of ganglion cells” value ([16]; rats treated with ergothioneine (81% without))?
A: Its value is 44%.

Q: What about the “Ameloid Precursor Protein (APP)” value [16] of the same compound?
A: The value was “significant decreases”.
